# Experimental data: ChEMBL document CHEMBL1208774, “3-D-QSAR and docking studies on the neuronal choline transporter” (Bioorg Med Chem Lett, 2010)
# Substitutions are numbered along the chain they refer to.
# How the values were obtained:
# [1] = molecular target: T1, High affinity choline transporter 1 (Mus musculus, UniProt Q8BGY9); experiment: Inhibition of [3H]choline uptake at choline transporter 1 in mouse brain synaptosome; type: tissue-based
# T1 sequence (Q8BGY9 whole entry): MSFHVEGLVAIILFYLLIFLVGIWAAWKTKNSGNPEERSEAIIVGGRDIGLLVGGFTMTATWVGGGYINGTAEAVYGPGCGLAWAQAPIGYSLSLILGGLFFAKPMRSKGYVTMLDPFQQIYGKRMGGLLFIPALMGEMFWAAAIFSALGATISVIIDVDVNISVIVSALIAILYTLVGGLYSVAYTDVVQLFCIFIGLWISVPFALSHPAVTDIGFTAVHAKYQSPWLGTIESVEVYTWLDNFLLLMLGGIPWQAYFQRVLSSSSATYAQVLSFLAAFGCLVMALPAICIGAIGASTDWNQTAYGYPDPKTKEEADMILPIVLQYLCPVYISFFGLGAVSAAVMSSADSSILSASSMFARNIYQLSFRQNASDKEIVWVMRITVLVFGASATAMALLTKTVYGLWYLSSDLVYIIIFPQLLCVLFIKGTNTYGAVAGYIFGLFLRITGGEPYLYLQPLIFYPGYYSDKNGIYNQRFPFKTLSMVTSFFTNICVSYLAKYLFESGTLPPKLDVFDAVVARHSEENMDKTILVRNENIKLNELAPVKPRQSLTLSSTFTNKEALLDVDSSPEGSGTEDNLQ
# [2] = molecular target: T2, High affinity choline transporter 1 (Rattus norvegicus, UniProt Q9JMD7); experiment: Binding affinity to rat choline transporter 1
# T2 sequence (Q9JMD7 whole entry): T1 sequence (Q8BGY9 whole entry) with S2P, P35A, Y307F, L386F, S467P, V513I, A519S
Structure (SMILES),Ki [1],Ki [2]
CNCCO,3800 µM,–
C[N+](C)(C)c1ccccc1,75.2 µM,–
C[N+](C)(C)CCCO,2.2 µM,–
C[N+](C)(C)CCCCO,310 µM,–
CN(C)CCCO,290 µM,–
CC(=O)OCCC[N+](C)(C)C,190 µM,–
COC(=O)CC[N+](C)(C)C,270 µM,–
CCOC(=O)CC[N+](C)(C)C,340 µM,–
COc1cc(C#CCC[N+](C)(C)C)cc(OC)c1OC,2 µM,–
COc1cc(C#CCC[N+]23CCC(CC2)C3)cc(OC)c1OC,0.05 µM,–
COc1cc(C#CCC[N+]23CCC(CC2)CC3)cc(OC)c1OC,0.09 µM,–
CC[N+]1(CCC#Cc2cc(OC)c(OC)c(OC)c2)CCCCC1,0.18 µM,–
CC[N+]1(CCC#Cc2cc(OC)c(OC)c(OC)c2)CCCC1,0.2 µM,–
CCCCCCCC[N+]1(CCC#Cc2cc(OC)c(OC)c(OC)c2)CCCCC1,0.23 µM,–
Cc1cc(C)nc(C)c1,107 µM,–
C[N+]12CCC(CC1)C(=O)C2,0.521 µM,–
C[N+]12CCC(CC1)CC2,4.7 µM,–
C1CN2CCC1CC2,40.1 µM,–
C[N+]12CCC(O)(CC1)CC2,72.1 µM,–

Structure (SMILES),Ki [1],Ki [2]
CC1C(O)C2CC[N+]1(C)CC2 (configuration not stated),210 µM,–
C[n+]1cccc(C(N)=O)c1,361 µM,–
CC[N+](CC)(CC)CCC#Cc1cc(OC)c(OC)c(OC)c1,0.701 µM,–
CCCCC[N+]1(CCC#Cc2cc(OC)c(OC)c(OC)c2)CCCCC1,0.02 µM,–
OCC[N+]12CCC(CC1)CC2,0.64 µM,–
CCCCCCCCCCCCCCCC[n+]1ccccc1,32.1 µM,–
Nc1ccncc1N [AMIFAMPRIDINE],820 µM,–
C[N+](C)(C)CCO.[Cl-] [CHOLINE CHLORIDE],0.681 µM,–
Nc1ccncc1 [DALFAMPRIDINE],481 µM,–
CNC [DIMETHYLAMINE],9420 µM,–
CN(C)CCO [DIMETHYLAMINOETHANOL],55.7 µM,–
C[N+]1(C)CCO[C@@](O)(c2ccc(-c3ccc([C@@]4(O)C[N+](C)(C)CCO4)cc3)cc2)C1 [HEMICHOLINIUM DIBROMIDE],–,0.01 µM
CN [METHYLAMINE],35100 µM,–
CN1CCC[C@H]1c1cccnc1 [NICOTINE],520 µM,–
CCCC[N+](CCCC)(CCCC)CCCC [TETRABUTYLAMMONIUM],1050 µM,–
C[N+](C)(C)C [TETRAMETHYLAMMONIUM],30.1 µM,–
CC[N+](CC)(CC)CC [TETRYLAMMONIUM],260 µM,–
CN(C)C [TRIMETHYLAMMONIUM],340 µM,–
